{"source": "patent EP4722208A1", "about": "“NOVEL BENZAMIDE DERIVATIVE COMPOUND AND PHARMACEUTICAL COMPOSITION COMPRISING SAME” (Samjin Pharmaceutical Co., Ltd., priority 2023, dated 2024)", "note": "Structures can show the parent of a compound that is named as a salt."}
{"molecular_target": "T1, Recombinant NAMPT protein (Homo sapiens, UniProt P43490)", "T1 construct": "purchased BPS bioscience # 7176-1", "T1 sequence (P43490 whole entry)": "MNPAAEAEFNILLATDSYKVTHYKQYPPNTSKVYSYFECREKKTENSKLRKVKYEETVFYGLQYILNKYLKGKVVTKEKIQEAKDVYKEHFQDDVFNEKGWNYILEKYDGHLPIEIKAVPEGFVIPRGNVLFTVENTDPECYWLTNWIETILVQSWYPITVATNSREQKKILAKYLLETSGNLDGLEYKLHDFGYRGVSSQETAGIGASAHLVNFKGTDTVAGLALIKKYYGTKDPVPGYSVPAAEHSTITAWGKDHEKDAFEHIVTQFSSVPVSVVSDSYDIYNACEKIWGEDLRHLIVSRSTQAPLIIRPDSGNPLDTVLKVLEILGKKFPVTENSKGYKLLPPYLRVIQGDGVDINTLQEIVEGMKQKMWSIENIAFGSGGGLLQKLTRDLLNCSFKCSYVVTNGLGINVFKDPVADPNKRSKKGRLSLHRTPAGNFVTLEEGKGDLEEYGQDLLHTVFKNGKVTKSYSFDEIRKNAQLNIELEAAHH", "test": "NAMPT enzyme inhibition assay (BPS bioscience NAMPT Inhibitor Screening Assay Kit, fluorescence)", "assay_type": "biochemical", "details": "30 min pre-incubation, 2 h at 30°C, compound 1000 nM to 3 nM, n=2", "description": "The NAMPT enzyme activity inhibition ability of the compound of the present invention was evaluated using the NAMPT Inhibitor Screening Assay Kit (# 7176-1) from BPS bioscience. Recombinant NAMPT protein was added to each well of a black 96-well plate, and dilution buffer was added to a blank well instead of NAMPT protein. A 5 x concentrated compound solution was added and pre-incubated at room temperature (approximately 22°C) for 30 minutes before the start of the reaction so that the compound and protein might bind before the enzyme reaction. At this time, the concentration of NAMPT protein was adjusted and used according to the enzyme activity of each protein lot within the final concentration range of 4-10 ng/µl, and the test compound was serially diluted at a ratio of 1:3 from 1000 nM to 3 nM, and experiments were conducted with n=2 for about seven concentrations. A 2 x concentrated test buffer containing ATP (final concentration of 20 µM), nicotinamide (final concentration of 20 µM), phosphoribosyl pyrophosphate (PRPP, final concentration of 40 µM), and ethanol (final concentration of 1.5%) was added, and the plate was incubated at 30°C for two hours, after which the fluorescence of a resulting reaction product was measured with excitation of 340 nm and emission of 460 nm. The NAMPT enzyme activity (%) was calculated by subtracting the measurement value of the blank well without NAMPT protein from the measurement value of all wells, and then taking the measurement value of the control well without the compound as 100%.", "units": {"IC50": "nM"}}
{"smiles": "Cc1cccc(CS(=O)(=O)c2ccc(C(=O)NCCCc3cn[nH]c3)cc2C#Cc2ccc(F)cc2)c1C", "note": "[compound 5, N-(3-(1H-pyrazol-4-yl)propyl)-4-((2,3-dimethylbenzyl)sulfonyl)-3-((4-fluorophenyl)ethynyl)benzamide]", "IC50": "≥ 1000"}
{"smiles": "Cn1ccc(CS(=O)(=O)c2ccc(C(=O)NCCc3c[nH]c4ccncc34)cc2C#Cc2ccc(F)cc2)n1", "note": "[compound 3, N-(2-(1H-pyrrolo[3,2-c]pyridin-3-yl)ethyl)-3-((4-fluorophenyl)ethynyl)-4-(((1-methyl-1H-pyrazol-3-yl)methyl)sulfonyl)benzamide]", "IC50": "< 500"}
{"smiles": "Cn1ccc(CNS(=O)(=O)c2ccc(C(=O)NCc3ccn4ccnc4c3)cc2C#Cc2ccc(F)cc2)n1", "note": "[compound 115, 3-((4-fluorophenyl)ethynyl)-N-(imidazo[1,2-a]pyridin-7-ylmethyl)-4-(N-((1-methyl-1H-pyrazol-3-yl)methyl)sulfamoyl)benzamide]", "IC50": "< 500"}
{"smiles": "O=C(NCCCc1cn[nH]c1)c1ccc(S(=O)(=O)Cc2cccc(C(F)(F)F)c2)c(C#Cc2ccc(F)cc2)c1", "note": "[compound 9, N-(3-(1H-pyrazol-4-yl)propyl)-3-((4-fluorophenyl)ethynyl)-4-((3-(trifluoromethyl)benzyl)sulfonyl)benzamide]", "IC50": "500 to 1000"}
{"smiles": "Cn1ccc(CS(=O)(=O)c2ccc(C(=O)NCCCc3cn[nH]c3)cc2C#Cc2ccc(C3CCNCC3)cc2)n1", "note": "[compound 245, N-(3-(1H-pyrazol-4-yl)propyl)-4-(((1-methyl-1H-pyrazol-3-yl)methyl)sulfonyl)-3-((4-(piperidin-4-yl)phenyl)ethynyl)benzamide hydrochloride]", "IC50": "< 500"}
{"smiles": "Cn1ccc(CS(=O)(=O)c2ccc(C(=O)NCCCc3cn[nH]c3)cc2C#Cc2ccc(OC(F)(F)F)cc2)n1", "note": "[compound 236, N-(3-(1H-pyrazol-4-yl)propyl)-4-(((1-methyl-1H-pyrazol-3-yl)methyl)sulfonyl)-3-((4-(trifluoromethoxy)phenyl)ethynyl)benzamide]", "IC50": "≥ 1000"}
{"smiles": "Cn1ccc(CS(=O)(=O)c2ccc(C(=O)NCc3ccn4ccnc4c3)cc2C#Cc2ccc3c(c2)CCNC3)n1", "note": "[compound 231, N-(imidazo[1,2-a]pyridin-7-ylmethyl)-4-(((1-methyl-1H-pyrazol-3-yl)methyl)sulfonyl)-3-((1,2,3,4-tetrahydroisoquinolin-6-yl)ethynyl)benzamide]", "IC50": "< 500"}
{"smiles": "Cn1ccc(CS(=O)(=O)c2ccc(C(=O)NCc3ccc4nccn4c3)cc2C#Cc2ccc(N)cc2)n1", "note": "[compound 240, 3-((4-aminophenyl)ethynyl)-N-(imidazo[1,2-a]pyridin-6-ylmethyl)-4-(((1-methyl-1H-pyrazol-3-yl)methyl)sulfonyl)benzamide]", "IC50": "< 500"}
{"smiles": "COc1cc(C#Cc2cc(C(=O)NCCCc3cn[nH]c3)ccc2S(=O)(=O)Cc2ccn(C)n2)ccc1C", "note": "[compound 235, N-(3-(1H-pyrazol-4-yl)propyl)-3-((3-methoxy-4-methylphenyl)ethynyl)-4-(((1-methyl-1H-pyrazol-3-yl)methyl)sulfonyl)benzamide]", "IC50": "< 500"}
{"smiles": "O=C(NCc1ccn2ccnc2c1)c1ccc(S(=O)(=O)Cc2ccn(C3CCNCC3)n2)c(C#Cc2ccc(F)cc2)c1", "note": "[compound 122, 3-((4-fluorophenyl)ethynyl)-N-(imidazo[1,2-a]pyridin-7-ylmethyl)-4-(((1-(piperidin-4-yl)-1H-pyrazol-3-yl)methyl)sulfonyl)benzamide]", "IC50": "≥ 1000"}
{"smiles": "CN(C)c1ccc(C#Cc2cc(C(=O)NCCCc3cn[nH]c3)ccc2S(=O)(=O)Cc2ccn(C)n2)cc1", "note": "[compound 244, N-(3-(1H-pyrazol-4-yl)propyl)-3-((4-(dimethylamino)phenyl)ethynyl)-4-(((1-methyl-1H-pyrazol-3-yl)methyl)sulfonyl)benzamide]", "IC50": "≥ 1000"}
{"smiles": "Cn1ccc(CS(=O)(=O)c2ccc(C(=O)NCc3ccn4ccnc4c3)cc2C#Cc2ccc(C(=O)NCCN3CCNCC3)cc2)n1", "note": "[compound 193, N-(imidazo[1,2-a]pyridin-7-ylmethyl)-4-(((1-methyl-1H-pyrazol-3-yl)methyl)sulfonyl)-3-((4-((2-(piperazin-1-yl)ethyl)carbamoyl)phenyl)ethynyl)benzamide]", "IC50": "≥ 1000"}
{"smiles": "Cn1ccc(CS(=O)(=O)c2ccc(C(=O)NCCCc3cn[nH]c3)cc2C#Cc2ccncc2)n1", "note": "[compound 237, N-(3-(1H-pyrazol-4-yl)propyl)-4-(((1-methyl-1H-pyrazol-3-yl)methyl)sulfonyl)-3-(pyridin-4-ylethynyl)benzamide]", "IC50": "< 500"}
{"smiles": "Nc1ccc(-n2ccc(CS(=O)(=O)c3ccc(C(=O)NCc4ccn5ccnc5c4)cc3C#Cc3ccc(F)cc3)n2)cc1", "note": "[compound 233, 4-(((1-(4-aminophenyl)-1H-pyrazol-3-yl)methyl)sulfonyl)-3-((4-fluorophenyl)ethynyl)-N-(imidazo[1,2-a]pyridin-7-ylmethyl)benzamide]", "IC50": "< 500"}
{"smiles": "Cn1ccc(CS(=O)(=O)c2ccc(C(=O)NCCc3ccc([N+](=O)[O-])nc3)cc2C#Cc2ccc(F)cc2)n1", "note": "[compound 7, 3-((4-fluorophenyl)ethynyl)-4-(((1-methyl-1H-pyrazol-3-yl)methyl)sulfonyl)-N-(2-(6-nitropyridin-3-yl)ethyl)benzamide]", "IC50": "≥ 1000"}
{"smiles": "Nc1cccc(CS(=O)(=O)c2ccc(C(=O)NCc3ccn4ccnc4c3)cc2C#Cc2ccc(F)cc2)c1", "note": "[compound 147]", "IC50": "< 500"}
{"smiles": "CNS(=O)(=O)c1ccc(C(=O)NCCCc2cn[nH]c2)cc1C#Cc1ccc(F)cc1", "note": "[compound 6, N-(3-(1H-pyrazol-4-yl)propyl)-3-((4-fluorophenyl)ethynyl)-4-(N-methylsulfamoyl)benzamide]", "IC50": "≥ 1000"}
{"smiles": "Cn1ccc(CS(=O)(=O)c2ccc(C(=O)NCc3ccn4ccnc4c3)cc2C#Cc2ccc(C(=O)NCCN3CCCCC3)cc2)n1", "note": "[compound 242, N-(imidazo[1,2-a]pyridin-7-ylmethyl)-4-(((1-methyl-1H-pyrazol-3-yl)methyl)sulfonyl)-3-((4-((2-(piperidin-1-yl)ethyl)carbamoyl)phenyl)ethynyl)benzamide]", "IC50": "500 to 1000"}
{"smiles": "Cn1ccc(CS(=O)(=O)c2ccc(C(=O)NCc3ccn4ccnc4c3)cc2C#Cc2ccc(N)nc2)n1", "note": "[compound 243, 3-((6-aminopyridin-3-yl)ethynyl)-N-(imidazo[1,2-a]pyridin-7-ylmethyl)-4-(((1-methyl-1H-pyrazol-3-yl)methyl)sulfonyl)benzamide]", "IC50": "< 500"}
{"smiles": "Cn1ccc(CS(=O)(=O)c2ccc(C(=O)NCCc3ccc(N)nc3)cc2C#Cc2ccc(F)cc2)n1", "note": "[compound 8, N-(2-(6-aminopyridin-3-yl)ethyl)-3-((4-fluorophenyl)ethynyl)-4-(((1-methyl-1H-pyrazol-3-yl)methyl)sulfonyl)benzamide]", "IC50": "≥ 1000"}
{"smiles": "O=C(NCCCc1cn[nH]c1)c1ccc(S(=O)(=O)Cc2ccn(-c3ccc(C(F)(F)F)cc3)n2)c(C#Cc2ccc(F)cc2)c1", "note": "[compound 4, N-(3-(1H-pyrazol-4-yl)propyl)-3-((4-fluorophenyl)ethynyl)-4-(((1-(4-(trifluoromethyl)phenyl)-1H-pyrazol-3-yl)methyl)sulfonyl)benzamide]", "IC50": "500 to 1000"}
